SMILES strings stand for the structures. Like-named read-outs stand apart in the source and are kept apart here.

Data set [1] in a line: Pharmacokinetic study, urinary excretion of unchanged Compound A. The following applies: for CL renal: human, urine, oral, 50 mg. The format is in vivo, human. As for the experimental part: (§1) In this single center, open-label, randomized study, 24 subjects (8 per each arm) received Compound A adult immediate release tablet or granular formulation suitable for reconstitution formulation in a fasted or fed state (high fat meal) in a 3-period, 3-sequence crossover design. Compound A was formulated as a granular formulation suitable for reconstitution (“Compound A pediatric formulation”) as described herein.
(§2) A 50 mg dose was used in this adult PK study.
(§3) Treatment A: Single doses of 50 mg Compound A pediatric formulation (1 sachet of granules) under fed conditions.
(§4) Treatment B: Single doses of 50 mg Compound A pediatric formulation (1 sachet of granules) under fasting conditions.
(§5) Treatment C: Single doses of 50 mg Compound A adult tablet formulation (1×50 mg IR tablet) under fasting conditions.
Overall (based on data from Cohorts 1 and 2), the fraction excreted in urine is less than 0.1%, thus the contribution of the urinary excretion in the disposition and elimination of the Compound A as a parent compound is negligible. The PK and statistical analysis were performed including all subjects with measurable pre-dose concentrations.

A short description of data set [2]: Pharmacokinetic study, 3-period crossover, plasma concentrations of Compound A by LC-MS/MS. Type of data set: in vivo, human. The settings on record: for AUC(0-inf) / AUC(0-t): human, plasma, oral, 50 mg, pediatric formulation, 50 mg single dose; for AUC(0-inf): read-out: AUC0-inf, mean; for AUC(0-t): read-out: AUC0-t, mean. On the procedure: as §1, §2
For each study period, subjects received one of the 3 following treatments:
as §3, §4, §5
Three groups of 8 subjects were randomized to one of the following 3 sequences.
Following an overnight fast of at least 10 hours, subjects received a standardized high-fat, high calorie meal 30 minutes before administration. Subjects must have eaten the total content of this meal in 30 minutes or less.
Thirty minutes after the start of breakfast, subjects were administered the suspension (the contents of one sachet of the Compound A pediatric formulation [granules for oral suspension] was mixed thoroughly with 120 mL of water at ambient temperature). Thereafter, the glass was rinsed twice with approximately 60 mL of water at ambient temperature and the subject was asked to drink the 60 mL of suspension each time. A total of approximately 240 mL of water was administered with the formulation within 5 minutes.
Additional food was then withheld for at least 4 hours following administration. Water was provided as needed until 1 hour pre-dose. Water was allowed beginning 1 hour after the administration of the drug.
Subjects fasted overnight for a minimum of 10 hours prior to dosing.
Subjects were administered the Compound A suspension (the contents of one sachet [granules for oral suspension] was mixed thoroughly with 120 mL of water at ambient temperature). Thereafter, the glass was rinsed twice with approximately 60 mL of water at ambient temperature and the subject was asked to drink the 60 mL of suspension each time. A total of approximately 240 mL of water was administered with the formulation within 5 minutes.
Fasting continued for at least 4 hours following Compound A administration. Water was provided as needed until 1 hour pre-dose. Water was allowed beginning 1 hour after the administration of the drug.
A single dose of the Compound A IR tablet was administered with approximately 240 mL of water, starting at 09:00, to 1 subject per 2 minute intervals.
Fasting continued for at least 4 hours following administration. Water was provided as needed until 1 hour pre-dose. Water was allowed beginning 1 hour after the administration of the drug.
Serial PK samples were obtained pre-dose and at specific timepoints through 48 h post-dose Plasma concentrations of Compound A were determined using validated liquid chromatography with tandem mass spectrometry method.

The mark [3] stands for this setting: pediatric formulation 50 mg, fed vs fasted.

Turning to `Cc1cc(S(=O)(=O)Nc2cscn2)c(F)cc1N(C)[C@H]1CCN(Cc2ccccc2)C1` [Compound A, (S)-4-((1-benzylpyrrolidin-3-yl)(methyl)amino)-2-fluoro-5-methyl-N-(thiazol-4-yl)benzenesulfonamide], the CL renal in data set [1] (pediatric formulation 50 mg, fasting) was 0.05 mL/min; in data set [1] (pediatric formulation 50 mg, fed), 0.055 mL/min. Also, in data set [1] (overall, based on data from Cohorts 1 and 2), the “fraction excreted in urine” value was “less than 0.1%”. Further, in data set [1] (pediatric formulation 50 mg, fed vs fasting), the “GMR for CLr” value is 115.56%. The AUC(0-inf) in data set [2] (fasting) is 11300 ng·h/mL; in data set [2] (fed (high-fat meal)), 11800 ng·h/mL. The results for the AUC(0-t) in data set [2] (fasting) and in data set [2] (fed (high-fat meal)) were 11100 ng·h/mL and 11700 ng·h/mL, respectively. Besides, in data set [2] (setting [3]), the “intra-subject CV % for AUC0-inf” value came to 9%. Further, the “intra-subject CV % for AUC0-t” value in data set [2] (setting [3]) is reported as 11%. In data set [2] (pediatric formulation 50 mg, fed vs fasted, 90% CI 97.98-107.58%), the “GMR for AUC0-inf” value was 102.67%. Besides, the “GMR for AUC0-t” value in data set [2] (pediatric formulation 50 mg, fed vs fasted, 90% CI 98.23-109.57%) is 103.74%.

The record behind these values is patent US20230404913A1, “PHARMACEUTICAL FORMULATIONS FOR TREATING DISEASES ASSOCIATED WITH VOLTAGE-GATED SODIUM CHANNELS” (Xenon Pharmaceuticals, Inc., priority 2020, published 2023).
